Measurements published in patent US6063587A, “Water-soluble tetrazolium salt compounds” (Dojindo Laboratories Co., Ltd., priority 1996, dated 2000).

How the values were obtained:
[1] = Storage stability test (absorbance of aqueous buffer solution at 460 nm); format: physicochemical; settings: 1 mM in 50 mM Tris buffer (pH 8.0), stored at 4° C. for 0, 1, 7, 14, 31 and 90 days
Method: 50 mM Tris buffer (pH 8.0) containing 1 mM of Compound a was stored at 4° C. for 0, 1, 7, 14, 31 and 90 days, and absorbances at 460 nm were measured. At the same time, the compound of the above general formula (2) described in Japanese Patent Unexamined Publication No.(Hei) 7-70092/1995 wherein both R^1 and R^2 are nitro groups (Compound b: see, the section of "Background Art") was stored in the same manner, and changes of absorbance were measured.

[2] = background statement; cited from earlier work

SMILES: O=[N+]([O-])c1ccc(-n2nc(-c3ccc(S(=O)(=O)O)cc3S(=O)(=O)[O-])n[n+]2-c2ccc(I)cc2)c([N+](=O)[O-])c1 [Compound b]
- changes of absorbance at 460 nm on storage [1]: remarkable increases of absorbance

SMILES: COc1cc(-c2ccc(-n3nc(-c4ccccc4)n[n+]3-c3ccc([N+](=O)[O-])cc3)c(OC)c2)ccc1-n1nc(-c2ccccc2)n[n+]1-c1ccc([N+](=O)[O-])cc1 [nitro-TB, 3,3'-[3,3'-dimethoxy-(1,1'-biphenyl)-4,4'-diyl]-bis[2-(4-nitrophenyl)-5-phenyl]-2H-tetrazolium chloride]
- water solubility of formazan compound [2]: low water solubility
